AC50 cell viability and efficacy data for 25 molecules are collected here from the supplement of paper PMC10290057.

Counter-ions that a name gives are not always drawn.

Experiment [1] has as its system HCT116. Briefly: AC50 cell viability (CellTiter-Glo); higher = less potent. The conditions noted are these: 48 h. A general note: In ATP-based viability assays light output follows the ATP content of the culture.
Experiment [2] relates to HCT116. The experiment is described as follows: efficacy (fitted maximal change in viability relative to DMSO control); higher = less cytotoxic (negative = loss of viability). The conditions noted are these: 48 h.
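For AC50 cell viability (CellTiter-Glo) in this document: HCT116 colorectal carcinoma cells screened at five concentrations per compound, luminescent viability scaled between DMSO wells and empty wells on each plate, curves fitted per compound.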
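For efficacy (fitted maximal change in viability relative to DMSO control) in this document: Luminescence-based viability readout, five doses per compound, normalized against on-plate DMSO and empty-well controls, followed by dose-response curve fitting for every drug.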

In experiment [1], `CNc1nc(Nc2cnn([C@H]3CCN(C4COC4)C[C@@H]3F)c2Cl)ncc1C(F)(F)F` [GNE-9605] registered an AC50 cell viability of 4.68 µM. For the same molecule, the efficacy in experiment [2] is -51.4%.
The corresponding values for `NC(=O)c1cccc(-c2cc(Nc3ccc(OC(F)(F)F)cc3)ncn2)c1` [GNF-2] are 18.6 µM and -97.5%.
As for `Cc1ccc(Nc2ncc3c(n2)N(C)C(=O)N(c2cc(NC(=O)c4cccc(C(F)(F)F)c4)ccc2C)C3)cn1` [GNF-7], the AC50 cell viability in experiment [1] was found to be 0.0332 µM. For the same molecule, the efficacy in experiment [2] was -69.3%.
The corresponding values for `Cc1ccc(NC(=O)Nc2cc(C(F)(F)F)ccc2F)cc1Nc1ccc2c(c1)NC(=O)/C2=C\c1ccc[nH]1` [GNF-5837] are 14.8 µM and -97.5%.
Take `NC1=NC(=C(C#N)C(=N1)N)N[C@@H](C2CC2)\C3=N\C4=C(C(=CC=C4F)Cl)C(=O)N3C5=CC=CN=C5` [GS-9901]: the AC50 cell viability in experiment [1] was 18.6 µM. Further, in experiment [2], the efficacy was -71%.
The corresponding values for `O=C/1NC(=O)C(=C1C2=CN=C3C=CC=C[N]23)/C4=C[N]5CCN(CC6=C5C4=CC=C6)C(=O)N7CCOCC7` [GSK3 Inhibitor] are 9.34 µM and -85.7%.
Molecule `CC\1=C(C(\N=C(/N1)C2=CC(=NC=C2)Cl)C3=C(F)C=C(Cl)C=C3)/C(=O)NC4=C(F)C=C5[NH]N=CC5=C4` (stereo not given) [GSK-25] gave an AC50 cell viability in experiment [1] of 29.5 µM. For the same molecule, in experiment [2], the efficacy was -97.8%.
`CCCC\1=C(/CNC(=O)C2=CC(=CC3=C2C=N[N]3C(C)C)C4=CC(=NC=C4)N5CCN(C)CC5)C(=O)NC(=C1)\C` [GSK-343] yielded an AC50 cell viability in experiment [1] of 23.5 µM. Besides, in experiment [2], the efficacy is -101%.
Take `COc1cc(C(=O)N2CC[C@@H](O)[C@@H](N)C2)cc2nc(-c3cc4ccccc4n3CC3CC3)n(C)c12` [GSK-484]: in experiment [1], the AC50 cell viability amounted to 23.5 µM. Moreover, in experiment [2], the efficacy was -94.1%.
`Cc1cc(C)c(C/N=C(\O)c2cc(-c3ccc(N4CCN(C)CC4)nc3)cc3c2c(C)cn3C(C)C)c(O)n1` [GSK-503] displayed an AC50 cell viability in experiment [1] of 23.5 µM. In addition, the efficacy in experiment [2] was -103%.
Taken in the same sequence, the figures for `O=C1NC(=O)/C(=C/c2ccc3nccc(-c4ccncc4)c3c2)S1` [GSK-615] were 0.934 µM and -82.3%.
`CC(C)(C)OC(=O)CN(Cc1ccc(Cl)cc1)Cc1ccc([N+](=O)[O-])s1` [GSK-4112] had an AC50 cell viability in experiment [1] of 20.9 µM. Besides, the efficacy in experiment [2] was -40.6%.
`COc1ccccc1C(=O)Nc1cc2c(cc1N1CCNC[C@H]1C)n(C)c(=O)n2C` [GSK-6853]: the AC50 cell viability in experiment [1] stood at 16.6 µM. Also, the efficacy in experiment [2] was -63.8%.
Taken in the same sequence, the figures for `CCOC(=O)CCNc1cc(N2CCc3ccccc3CC2)nc(-c2ccccn2)n1` [GSK-J4] were 2.95 µM and -90.6%.
In the case of `COc1ccc(COc2ccc(Cc3cnc(N)nc3N)cc2OC)cc1` [GW-2580], in experiment [1], the AC50 cell viability was 14.8 µM. In addition, the efficacy in experiment [2] was -96.7%.
The corresponding values for `Cc1ccc(C(=O)Nc2ccc(CN3CCN(C)CC3)c(C(F)(F)F)c2)cc1C#Cc1cnc2[nH]ncc2c1` [GZD-824] are 0.934 µM and -121%.
In the case of `C[C@]\12CC[C@H](O)CC1=C/CC3C2CC[C@@]\4(C)C3C\C=C4[N]5C=NC6=C5C=CC=C6` (stereo not given in full) [Galeterone], the AC50 cell viability in experiment [1] worked out at 5.9 µM. Moreover, the efficacy in experiment [2] is -43.8%.
The corresponding values for `Cc1cc(Nc2cc(CN3CCOCC3)c3nc(C)c(Cc4ccc(Cl)cc4F)n3n2)[nH]n1` [Gandotinib] are 5.9 µM and -110%.
In the case of `CC(C)C1=C(O)C=C(O)C(=C1)C/2=N/NC(=O)N2C3=CC4=C(C=C3)[N](C)C=C4` [Ganetespib (STA-9090)], in experiment [1], the AC50 cell viability amounted to 0.0742 µM. Further, the efficacy in experiment [2] is -62.3%.
Molecule `CCNCc1nc2c(N)nc3ccccc3c2n1CC(C)(C)O` [Gardiquimod] registered an AC50 cell viability in experiment [1] of 16.6 µM. In addition, in experiment [2], the efficacy was -62%.
The corresponding values for `CN(C)C1CCN(C(=O)c2ccc(NC(=O)Nc3ccc(-c4nc(N5CCOCC5)nc(N5CCOCC5)n4)cc3)cc2)CC1` [Gedatolisib] are 0.148 µM and -69.6%.
With `NC/1=N/C(=O)N(/C=C1)[C@@H]2O[C@H](CO)[C@@H](O)C2(F)F` [Gemcitabine], the AC50 cell viability in experiment [1] came to 0.0263 µM. Further, the efficacy in experiment [2] is -71.9%.
As for `CCc1nc(C(N)=O)c(Nc2ccc(N3CCC(N4CCN(C)CC4)CC3)c(OC)c2)nc1NC1CCOCC1` [Gilteritinib], the AC50 cell viability in experiment [1] was 1.66 µM. In addition, the efficacy in experiment [2] is -65.1%.
`CCN(CC)Cc1ccc2cc(COC(=O)Nc3ccc(C(=O)NO)cc3)ccc2c1` [Givinostat hydrochloride] returned an AC50 cell viability in experiment [1] of 0.263 µM. Also, in experiment [2], the efficacy was -88.8%.
Molecule `COCCNCc1ccc(-c2cc3nccc(Oc4ccc(NC(=S)NC(=O)Cc5ccc(F)cc5)cc4F)c3s2)nc1` [Glesatinib] gave an AC50 cell viability in experiment [1] of 6.61 µM. The efficacy in experiment [2] is -80.1%.
